This experiment concerns the target T1, hMCHR (Homo sapiens, UniProt Q99705).
T1 construct: host or cells: CHO (Chinese hamster ovary) cells, membranes
Description: MCH Assay PCOP Protocol: [125I]-MCH binding to hMCHR-CHO membranes, WGA-SPA beads. As to conditions: hMCHR-CHO overexpressing membranes, 0.5 nM [125I]-MCH, 2 hours incubation. As to the method: A reaction mixture of 10 μg hMCHR-CHO overexpressing membranes (from Receptor Biology, Inc., Beltville, Md., or internally produced) and 100 μg/well WGA-SPA beads (from Amersham Pharmacia Biotech, Inc., Piscataway, N.J.)/100 μL was prepared in MCHR assay buffer (25 mM HEPES, pH 7.4, 10 mM NaCl, 10 mM MgCl2, 5 mM MnCl2, 0.1%BSA). […] The assay plates were shaken for 5 minutes on a plate shaker, then incubated for 2 hours before cpm/well were determined in a Microbeta Trilux counter (from Perkin Elmer Wallac, Inc., Gaithersburg, Md.).
T1 sequence (Q99705 whole entry): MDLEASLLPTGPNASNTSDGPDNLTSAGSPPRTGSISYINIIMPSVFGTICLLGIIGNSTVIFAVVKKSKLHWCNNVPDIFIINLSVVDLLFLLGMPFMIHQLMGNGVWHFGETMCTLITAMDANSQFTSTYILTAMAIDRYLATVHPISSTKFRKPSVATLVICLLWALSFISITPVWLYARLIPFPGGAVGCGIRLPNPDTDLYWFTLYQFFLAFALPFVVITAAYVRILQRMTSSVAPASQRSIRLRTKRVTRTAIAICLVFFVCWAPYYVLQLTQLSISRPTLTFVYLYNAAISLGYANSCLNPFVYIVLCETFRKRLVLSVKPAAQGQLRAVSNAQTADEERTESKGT
Compound `COCCN1CCC(CNC(=O)Nc2ccc(F)c(F)c2)(c2ccc(-c3cccc(C#N)c3)cc2)CC1` [Example 91] gave an inhibition constant Ki of 0.2 to 10 nM.
Next, `CC(C)CN1CCC(CNC(=O)Nc2cc(Cl)cc(Cl)c2)(c2ccc(-c3cccc(Cl)c3)cc2)CC1` [Example 112]: 11 to 100 nM.
For `O=C(NCC1(c2ccc(-c3cccc(Cl)c3)cc2)CCN(CC2CC2)CC1)Nc1cc(C(F)(F)F)ccc1Cl` [Example 73], the inhibitory constant (Ki) is 101 to 5500 nM.
Take `COCCN1CCC(CNC(=O)Nc2ccc(OC)c(Cl)c2)(c2ccc(-c3cccc(C#N)c3)cc2)CC1` [Example 95]: the Ki lay in the range of 11 to 100 nM.
Turning to `CN1CCC(CNC(=O)Nc2cc(C(F)(F)F)ccc2Cl)(c2ccc(-c3cccc(C#N)c3)cc2)CC1` [Example 69], the Ki fell in the range of 11 to 100 nM.
Next, `CN1CCC(CNC(=O)c2cc(Cl)cc(Cl)c2)(c2ccc(-c3cccc(Cl)c3)cc2)CC1` [Example 72]: 101 to 5500 nM.
Next, `CC(C)COC(=O)NCC1(c2ccc(-c3cccc(C#N)c3)cc2)CCN(CC2CC2)CC1` [Example 12, [4-(3′-Cyano-biphenyl-4-yl)-1-cyclopropylmethyl-piperidin-4-ylmethyl]-carbamic acid isobutyl ester]: 101 to 5500 nM.
Next, `COCCN1CCC(CNC(=O)Nc2cc(F)cc(F)c2)(c2ccc(-c3cccc(C#N)c3)cc2)CC1` [Example 105]: 0.2 to 10 nM.
In turn, `CCCN1CCC(CNC(=O)Nc2cc(Cl)cc(Cl)c2)(c2ccc(C)cc2)CC1` [Example 27] gave a Ki of 101 to 5500 nM.
Next, `N#Cc1cccc(-c2ccc(C3(CNC(=O)Nc4cc(Cl)cc(Cl)c4)CCN(C4CCOCC4)CC3)cc2)c1` [Example 109]: 0.2 to 10 nM.
Take `CN(CC1(c2ccc(-c3cccc(C#N)c3)cc2)CCN(CC2CC2)CC1)C(=O)Nc1cc(Cl)cc(Cl)c1` [Example 14, 1-[4-(3′-Cyano-biphenyl-4-yl)-1-cyclopropylmethyl-piperidin-4-ylmethyl]-3-(3,5-dichloro-phenyl)-1-methyl-urea]: the Ki was 0.2 to 10 nM.
The same measure for `CN1CCC(CNC(=O)Cc2ccc(Cl)c(Cl)c2)(c2ccc(-c3cccc(C#N)c3)cc2)CC1` [Example 87]: 11 to 100 nM.
Next, `COCCN1CCC(CNC(=O)Nc2cc(Cl)cc(Cl)c2)(c2ccc(-c3cccc(Cl)c3)cc2)CC1` [Example 35]: 0.2 to 10 nM; `N#Cc1cccc(-c2ccc(C3(CNC(=O)Nc4ccc5c(c4)OCO5)CCN(CC4CC4)CC3)cc2)c1` [Example 98]: 11 to 100 nM.
`COc1ccc(-c2ccc(C3(CNC(=O)Nc4cc(Cl)cc(Cl)c4)CCN(C)CC3)cc2)cn1` [Example 44] registered an inhibition constant (Ki) of 11 to 100 nM.
In turn, `COCCN1CCC(CNCc2cc(Cl)cc(Cl)c2)(c2ccc(-c3cccc(Cl)c3)cc2)CC1` [Example 129] returned a Ki of 101 to 5500 nM.
Compound `N#Cc1cccc(-c2ccc(C3(CNCC4CC4)CCN(C(=O)Nc4cc(Cl)cc(Cl)c4)CC3)cc2)c1` [Example 131] gave a Ki of 11 to 100 nM.
The same measure for `N#Cc1cccc(-c2ccc(C3(CNC(=O)Nc4ccc(Cl)cc4C(F)(F)F)CCN(CC4CC4)CC3)cc2)c1` [Example 60]: 101 to 5500 nM; for `COCCN1CCC(CNC(=O)Nc2ccc(F)c(Cl)c2)(c2ccc(-c3cccc(C#N)c3)cc2)CC1` [Example 90]: 0.2 to 10 nM; for `CN1CCC(C(=O)NCc2cc(Cl)cc(Cl)c2)(c2ccc(-c3cccc(C#N)c3)cc2)CC1` [Example 16, 4-(3′-Cyano-biphenyl-4-yl)-1-methyl-piperidine-4-carboxylic acid 3,5-dichloro-benzylamide]: 101 to 5500 nM.
As to `O=C(Nc1cc(Cl)cc(Cl)c1)N1CCC(CN(CC2CC2)CC2CC2)(c2ccc(-c3cccc(Cl)c3)cc2)CC1` [Example 126], the Ki fell in the range of 101 to 5500 nM.
For the compound `CC(C)N1CCC(CNC(=O)Nc2cc(Cl)cc(Cl)c2)(c2ccc(-c3ccc4c(c3)OCO4)cc2)CC1` [Example 82], the Ki was 0.2 to 10 nM.
The same measure for `CN1CCC(CNC(=O)Nc2ccc(F)c(F)c2)(c2ccc(-c3cccnc3)cc2)CC1` [Example 30]: 11 to 100 nM.
Compound `CN1CCC(CNC(=O)Nc2cc(Cl)cc(Cl)c2)(c2ccc(-c3ccc4c(c3)OCO4)cc2)CC1` [Example 43] showed a Ki of 0.2 to 10 nM.
The same measure for `CN1CCC(CNC(=O)Nc2cc(C(F)(F)F)ccc2Cl)(c2ccc(-c3cccc(Cl)c3)cc2)CC1` [Example 57]: 11 to 100 nM; for `CN1CCC(CNC(=O)Nc2ccc(Cl)cc2C(F)(F)F)(c2ccc(-c3cccc(Cl)c3)cc2)CC1` [Example 59]: 101 to 5500 nM.
`O=C(NCC1(c2ccc(-c3cccc(Cl)c3)cc2)CCN(C2CCC2)CC1)Nc1cc(Cl)cc(Cl)c1` [Example 107] yielded a Ki of 101 to 5500 nM.
`O=C(NCC1(c2ccc(-c3cccc(Cl)c3)cc2)CCN(CC2CC2)CC1)Nc1ccc(Cl)cc1C(F)(F)F` [Example 48] returned a Ki of 101 to 5500 nM.
On to `CN1CCC(CNC(=O)Nc2ccc(F)cc2F)(c2ccc(-c3cccc(C#N)c3)cc2)CC1` [Example 9, 1-[4-(3′-Cyano-biphenyl-4-yl)-1-methyl-piperidin-4-ylmethyl]-3-(2,4-difluoro-phenyl)-urea], for which the Ki fell in the range of 0.2 to 10 nM.
`CN1CCC(C(=O)Nc2cc(Cl)cc(Cl)c2)(c2ccc(-c3cccc(C#N)c3)cc2)CC1` [Example 15, 4-(3′-Cyano-biphenyl-4-yl)-1-methyl-piperidine-4-carboxylic acid (3.5-dichloro-phenyl)-amide] showed a Ki of 101 to 5500 nM.
Next, `O=C(NCC1(c2ccc(-c3cccc(Cl)c3)cc2)CCN(C2CCCCC2)CC1)Nc1cc(Cl)cc(Cl)c1` [Example 120]: 0.2 to 10 nM; `N#Cc1cccc(-c2ccc(C3(CNC(=O)Nc4ccc(F)c(C(F)(F)F)c4)CCN(CC4CC4)CC3)cc2)c1` [Example 100]: 0.2 to 10 nM.
The same measure for `CN1CCC(CNC(=O)Nc2cc(Cl)cc(Cl)c2)(c2cccc(Cl)c2)CC1` [Example 24]: 101 to 5500 nM; for `CCCN1CCC(CNC(=O)Nc2ccc(Cl)c(C(F)(F)F)c2)(c2ccc(-c3cccc(C#N)c3)cc2)CC1` [Example 71]: 0.2 to 10 nM; for `Cc1ccc(C2(CNC(=O)Nc3cc(Cl)cc(Cl)c3)CCNCC2)cc1` [Example 23]: 101 to 5500 nM.
Next, `O=C(NCC1(c2ccc(-c3cccc(Cl)c3)cc2)CCN(CC2CC2)CC1)Nc1ccc(Cl)c(C(F)(F)F)c1` [Example 61]: 11 to 100 nM; `CN1CCC(CN(C)C(=O)Nc2cc(Cl)cc(Cl)c2)(c2ccc(-c3cccc(C#N)c3)cc2)CC1` [Example 38]: 0.2 to 10 nM.
`O=C(Nc1cc(Cl)cc(Cl)c1)N1CCC(CNCC2CC2)(c2ccc(-c3cccc(Cl)c3)cc2)CC1` [Example 128]: the inhibition constant (Ki) lay within 101 to 5500 nM.
On to `CCCN1CCC(CNC(=O)Nc2ccc(Cl)cc2C(F)(F)F)(c2ccc(-c3cccc(C#N)c3)cc2)CC1` [Example 47], for which the Ki lay in the range of 11 to 100 nM.
The same measure for `CCCCN1CCC(CNC(=O)Nc2cc(Cl)cc(Cl)c2)(c2ccc(-c3cccc(Cl)c3)cc2)CC1` [Example 113]: 11 to 100 nM.
As for `O=C(NCC1(c2ccc(-c3cccc(Cl)c3)cc2)CCN(CC2CC2)CC1)Nc1cc(Cl)cc(Cl)c1` [Example 70], the Ki was in the range of 0.2 to 10 nM.
Consider `COCCN1CCC(CNCc2cc(Cl)cc(Cl)c2)(c2ccc(-c3cccc(NC(C)=O)c3)cc2)CC1` [Example 135], for which the Ki was 101 to 5500 nM.
The same measure for `CCCN1CCC2(CC1)CN(C(=O)Nc1ccc(Cl)c(Cl)c1)c1ccc(-c3cccc(C#N)c3)cc12` [Example 45]: 101 to 5500 nM; for `CC(C)N1CCC(CNC(=O)Nc2cc(Cl)cc(Cl)c2)(c2ccc(-c3cccc(Cl)c3)cc2)CC1` [Example 83]: 0.2 to 10 nM; for `CN1CCC2(CC1)CN(C(=O)Nc1cc(Cl)cc(Cl)c1)c1ccc(-c3cccc(C#N)c3)cc12` [Example 37]: 11 to 100 nM.

The term Ki denotes the equilibrium dissociation constant of an inhibitor or competing ligand from its target. The low end stands for higher affinity, the high end for lower affinity.

These data come from US6887889B2 (Pharmacopeia Drug Discovery, Inc., priority 2001, dated 2005).
